Earlier results, collected in patent US20250195440A1, “PHARMACEUTICAL FORMULATION COMPRISING GLUCOKINASE ACTIVATOR AND USE THEREOF” (Hua Medicine USA Inc., priority 2023, published 2025).

What was measured:
[1] = test system: esterase enzymes in gastrointestinal tract; settings: with esterase enzymes in gastrointestinal tract
[2] = test system: glucose-stimulated GLP-1 secretion; settings: patients with type II diabetes and obesity; Dorzagliatin alone

Structure (SMILES) | Conversion into active Dorzagliatin [1] | Impaired glucose-stimulated GLP-1 secretion [2]
CC(C)C[C@@H](C(=O)Nc1ccn(C[C@@H](O)COC(=O)c2cccnc2)n1)N1CC(Oc2ccccc2Cl)=CC1=O [compound of formula (I)] | quickly and completely converted | 
CC(C)C[C@@H](C(=O)Nc1ccn(C[C@@H](O)CO)n1)N1CC(Oc2ccccc2Cl)=CC1=O [Dorzagliatin, (S)-2-[4-(2-chloro-phenoxy)-2-oxo-2,5-dihydro-pyrrol-1-yl]-4-methyl-pentanoic acid [1-((R)-2,3-dihydroxy-propyl)-1H-pyrazol-3-yl]-amide] |  | improved
